Measured values published in publication PMC5882164, “A novel calcimimetic agent, evocalcet (MT-4580/KHK7580), suppresses the parathyroid cell function with little effect on the gastrointestinal tract or CYP isozymes in vivo and in vitro” (PLoS ONE, 2018).
Several values for one entry are separate records, joined by “and”; a condition that tells them apart may be missing. Equal values may be shown once.

Test system: serum PTH
Assay: 5/6 nephrectomized rats study: serum PTH level
Assay type: in vivo, rat
Conditions: 5/6 Nx rats; for Serum PTH levels before (day 0) and 24 h after evocalcet administration, Mean / Serum PTH levels after the first administration, Mean: group mean; for Serum PTH levels before (day 0) and 24 h after evocalcet administration: individual rats
Procedure: Rats were 5/6 nephrectomized in two steps. Under anesthesia (pentobarbital, 50 mg/kg; intraperitoneally) and analgesia (lidocaine; topically), two-thirds of the left kidney was removed, and then the right kidney was removed after a seven-day interval. Seven days after the completion of 5/6 nephrectomy, the FR-2 diet was changed to a high-phosphate diet, containing 0.6% calcium and 0.9% phosphate (Oriental Yeast Co., Ltd., Tokyo, Japan). Approximately 2 weeks after the initiation of the high-phosphate diet, the 5/6 Nx rats were divided into five groups (n = 12/group) matched in terms of their body weight as well as their blood urea nitrogen (BUN) and serum PTH and calcium levels.
In the single-dose study, blood samples were collected from the tail vein before and at 0.5, 2, 4, 8, 24, 48, and 72 h after the oral administration of vehicle (0.5% methyl cellulose solution) or evocalcet (0.03, 0.1, 0.3, or 1 mg/kg). In the repeated-dose study, vehicle or evocalcet was orally administered to the respective groups once daily for 14 days. Blood samples were obtained from the tail vein before the first administration and after the seventh and last administrations.
The serum PTH level was measured using a Rat Intact PTH ELISA kit (Immutopics, Inc., San Clemente, CA). The serum calcium, phosphate and BUN levels were measured using an auto analyzer (Hitachi High-Technologies Corporation., Tokyo, Japan) or the following test kits: the Calcium E-test WAKO, the Phospha C-test WAKO, or the Blood Urea nitrogen B-test WAKO (Wako Pure Chemical Industries, Ltd., Osaka, Japan).

Q: `C[C@@H](N[C@H]1CCN(c2ccc(CC(=O)O)cc2)C1)c1cccc2ccccc12` [evocalcet] was tested. Which “Serum PTH levels after the first administration” value (0.03 mg/kg, 0 h, group mean of 12 rats) did it give?
A: 2235.149

Q: And the “Serum PTH levels after the first administration” value (0.03 mg/kg, 0 h, individual rat)?
A: 3146.838 and 3130.460 and 2411.903 and 1952.597 and 3363.037 and 1097.629

Q: And the “Serum PTH levels after the first administration” value (0.03 mg/kg, 0.5 h, group mean of 12 rats)?
A: 2132.775

Q: And the “Serum PTH levels after the first administration” value (0.03 mg/kg, 0.5 h, individual rat)?
A: 4101.960 and 5220.639 and 2506.611 and 3090.422 and 3558.006 and 125.411

Q: What about the “Serum PTH levels after the first administration” value (0.03 mg/kg, 2 h, group mean of 12 rats) of the same compound?
A: 2186.293

Q: And the “Serum PTH levels after the first administration” value (0.03 mg/kg, 2 h, individual rat)?
A: 4890.509 and 4068.711 and 2185.504 and 3005.600 and 4664.020 and 345.560

Q: What about the “Serum PTH levels after the first administration” value (0.03 mg/kg, 4 h, group mean of 12 rats) of the same compound?
A: 2269.553

Q: And the “Serum PTH levels after the first administration” value (0.03 mg/kg, 4 h, individual rat)?
A: 4679.877 and 4835.119 and 2331.859 and 3883.490 and 3137.288 and 547.391

Q: And the “Serum PTH levels after the first administration” value (0.03 mg/kg, 8 h, group mean of 12 rats)?
A: 2414.885

Q: What about the “Serum PTH levels after the first administration” value (0.03 mg/kg, 8 h, individual rat) of the same compound?
A: 5964.855 and 4334.746 and 2555.658 and 4291.517 and 2662.474 and 769.912

Q: And the “Serum PTH levels after the first administration” value (0.03 mg/kg, 24 h, group mean of 12 rats)?
A: 2792.495

Q: And the “Serum PTH levels after the first administration” value (0.03 mg/kg, 24 h, individual rat)?
A: 4890.842 and 5921.359 and 2295.822 and 3334.469 and 3685.692 and 634.649

Q: What about the “Serum PTH levels before (day 0) and 24 h after evocalcet administration, Mean” value (0.03 mg/kg, day 0 (Before)) of the same compound?
A: 2235.149

Q: And the “Serum PTH levels before (day 0) and 24 h after evocalcet administration” value (0.03 mg/kg, day 0 (Before), 0.03 mg/kg)?
A: 3146.838 and 3130.460 and 2411.903 and 1952.597 and 3363.037 and 1097.629 and 2977.436 and 1709.257 and 736.362 and 1492.356 and 1948.854 and 2855.064

Q: And the “Serum PTH levels before (day 0) and 24 h after evocalcet administration, Mean” value (0.03 mg/kg, day 7 (24 h))?
A: 1440.297

Q: What about the “Serum PTH levels before (day 0) and 24 h after evocalcet administration” value (0.03 mg/kg, day 7 (24 h), 0.03 mg/kg) of the same compound?
A: 175.760 and 1003.083 and 756.245 and 2355.229 and 3361.800 and 1990.106 and 170.127 and 208.561 and 3498.638 and 332.146 and 1090.222 and 2341.644

Q: And the “Serum PTH levels before (day 0) and 24 h after evocalcet administration, Mean” value (0.03 mg/kg, day 14 (24 h))?
A: 2303.348

Q: And the “Serum PTH levels before (day 0) and 24 h after evocalcet administration” value (0.03 mg/kg, day 14 (24 h), 0.03 mg/kg)?
A: 4997.693 and 3995.599 and 1879.977 and 3492.362 and 3523.261 and 468.569 and 465.344 and 1621.501 and 608.285 and 1702.644 and 1919.474 and 2965.469

Q: And the “Serum PTH levels after the first administration” value (0.1 mg/kg, 0 h, individual rat)?
A: 2191.024 and 4476.799 and 4734.069 and 3561.219 and 1608.879 and 3394.625 and 2344.750 and 2855.532 and 1478.317 and 2515.323

Q: What about the “Serum PTH levels after the first administration” value (0.1 mg/kg, 0.5 h, individual rat) of the same compound?
A: 697.065 and 166.990 and 643.814 and 188.145 and 87.713 and 1427.254 and 2994.134 and 497.193 and 52.922 and 216.107

Q: And the “Serum PTH levels after the first administration” value (0.1 mg/kg, 2 h, individual rat)?
A: 921.070 and 152.688 and 1274.188 and 268.767 and 48.850 and 837.618 and 3213.565 and 734.412 and 45.617 and 171.332

Q: What about the “Serum PTH levels after the first administration” value (0.1 mg/kg, 4 h, individual rat) of the same compound?
A: 1346.496 and 622.337 and 1091.618 and 881.643 and 178.355 and 1445.792 and 3885.042 and 1344.283 and 585.655 and 429.439

Q: And the “Serum PTH levels after the first administration” value (0.1 mg/kg, 8 h, individual rat)?
A: 1602.872 and 1239.629 and 2688.836 and 1069.819 and 616.193 and 1780.899 and 3893.446 and 2481.366 and 541.217

Q: And the “Serum PTH levels after the first administration” value (0.1 mg/kg, 24 h, individual rat)?
A: 2327.970 and 3050.546 and 5188.511 and 1270.996 and 1634.838 and 3384.643 and 3324.854 and 2293.418 and 169.556

Q: What about the “Serum PTH levels before (day 0) and 24 h after evocalcet administration, Mean” value (0.1 mg/kg, day 0 (Before)) of the same compound?
A: 3005.615

Q: And the “Serum PTH levels before (day 0) and 24 h after evocalcet administration” value (0.1 mg/kg, day 0 (Before), 0.1 mg/kg)?
A: 2191.024 and 4476.799 and 4734.069 and 3561.219 and 1608.879 and 3394.625 and 2344.750 and 2855.532 and 1478.317 and 2515.323 and 3938.529 and 2968.311

Q: What about the “Serum PTH levels before (day 0) and 24 h after evocalcet administration, Mean” value (0.1 mg/kg, day 7 (24 h)) of the same compound?
A: 2408.528

Q: What about the “Serum PTH levels before (day 0) and 24 h after evocalcet administration” value (0.1 mg/kg, day 7 (24 h), 0.1 mg/kg) of the same compound?
A: 1659.111 and 1709.141 and 1368.206 and 692.961 and 2049.745 and 3311.770 and 3632.825 and 4438.329 and 2720.020 and 2668.995 and 3977.154 and 674.076

Q: What about the “Serum PTH levels before (day 0) and 24 h after evocalcet administration, Mean” value (0.1 mg/kg, day 14 (24 h)) of the same compound?
A: 1395.021

Q: And the “Serum PTH levels before (day 0) and 24 h after evocalcet administration” value (0.1 mg/kg, day 14 (24 h), 0.1 mg/kg)?
A: 1994.437 and 1611.022 and 2757.774 and 1453.572 and 176.238 and 2214.760 and 1548.955 and 1921.086 and 242.603 and 1372.697 and 1155.599 and 291.504

Q: What about the “Serum PTH levels before (day 0) and 24 h after evocalcet administration, Mean” value (0.3 mg/kg, day 0 (before)) of the same compound?
A: 2359.764

Q: What about the “Serum PTH levels before (day 0) and 24 h after evocalcet administration” value (0.3 mg/kg, day 0 (before), 0.3 mg/kg) of the same compound?
A: 1632.745 and 2446.532 and 2253.029 and 2449.574 and 3238.325 and 2017.644

Q: And the “Serum PTH levels before (day 0) and 24 h after evocalcet administration, Mean” value (0.3 mg/kg, day 7 (24 h))?
A: 387.934

Q: What about the “Serum PTH levels before (day 0) and 24 h after evocalcet administration” value (0.3 mg/kg, day 7 (24 h), 0.3 mg/kg) of the same compound?
A: 516.033 and 370.580 and 777.450 and 52.037 and 15.500 and 862.269

Q: What about the “Serum PTH levels before (day 0) and 24 h after evocalcet administration, Mean” value (0.3 mg/kg, day 14 (24 h)) of the same compound?
A: 440.352

Q: And the “Serum PTH levels before (day 0) and 24 h after evocalcet administration” value (0.3 mg/kg, day 14 (24 h), 0.3 mg/kg)?
A: 134.323 and 160.654 and 218.153 and 43.180 and 221.109 and 481.197

Q: What about the “Serum PTH levels after the first administration, Mean” value (0.3 mg/kg, time 0 h) of the same compound?
A: 2359.764

Q: And the “Serum PTH levels after the first administration, Mean” value (0.3 mg/kg, time 0.5 h)?
A: 200.671

Q: What about the “Serum PTH levels after the first administration, Mean” value (0.3 mg/kg, time 2 h) of the same compound?
A: 273.789

Q: What about the “Serum PTH levels after the first administration, Mean” value (0.3 mg/kg, time 4 h) of the same compound?
A: 614.302

Q: And the “Serum PTH levels after the first administration, Mean” value (0.3 mg/kg, time 8 h)?
A: 1297.802

Q: And the “Serum PTH levels after the first administration, Mean” value (0.3 mg/kg, time 24 h)?
A: 1196.310

Q: What about the “Serum PTH levels before (day 0) and 24 h after evocalcet administration, Mean” value (1 mg/kg, day 0 (before)) of the same compound?
A: 2488.277

Q: What about the “Serum PTH levels before (day 0) and 24 h after evocalcet administration” value (1 mg/kg, day 0 (before), 1 mg/kg) of the same compound?
A: 3077.112 and 1497.503 and 1942.068 and 2386.399

Q: What about the “Serum PTH levels before (day 0) and 24 h after evocalcet administration, Mean” value (1 mg/kg, day 7 (24 h)) of the same compound?
A: 641.383

Q: And the “Serum PTH levels before (day 0) and 24 h after evocalcet administration” value (1 mg/kg, day 7 (24 h), 1 mg/kg)?
A: 740.010 and 15.500 and 123.742

Q: What about the “Serum PTH levels before (day 0) and 24 h after evocalcet administration, Mean” value (1 mg/kg, day 14 (24 h)) of the same compound?
A: 594.302

Q: What about the “Serum PTH levels before (day 0) and 24 h after evocalcet administration” value (1 mg/kg, day 14 (24 h), 1 mg/kg) of the same compound?
A: 671.158 and 155.818 and 37.909

Q: And the “Serum PTH levels after the first administration, Mean” value (1 mg/kg, time 0 h)?
A: 2488.277

Q: What about the “Serum PTH levels after the first administration, Mean” value (1 mg/kg, time 0.5 h) of the same compound?
A: 86.013

Q: And the “Serum PTH levels after the first administration, Mean” value (1 mg/kg, time 2 h)?
A: 672.764

Q: And the “Serum PTH levels after the first administration, Mean” value (1 mg/kg, time 4 h)?
A: 302.274

Q: What about the “Serum PTH levels after the first administration, Mean” value (1 mg/kg, time 8 h) of the same compound?
A: 788.660

Q: What about the “Serum PTH levels after the first administration, Mean” value (1 mg/kg, time 24 h) of the same compound?
A: 864.186

Q: What about the “Doses that steadily decreased the serum PTH level” value (once daily oral for 14 days, 24 h after administration on days 7 and 14) of the same compound?
A: ≥ 0.3 mg/kg

Q: What about the “Doses that significantly decreased the serum PTH level” value (single oral dose, vs vehicle group) of the same compound?
A: ≥ 0.1 mg/kg
